Measured values from patent publication US20150233949A1, “DETECTION AND MODULATION OF CYTOCHROME C ACETYLATION” (President and Fellows of Harvard College, priority 2008, published 2015).

What was measured:
129/Sv mice = experiment: Seizure induction by kainic acid injection in mice; type: in vivo, mouse; settings: 30 mg/kg KA i.p.; WT and SIRT3 KO, female and male mice
Protocol: Littermate 129/Sv (6-8 weeks old) mice were used for the studies. SIRT3−/− mice were in a 129/sv background. Mice were housed under controlled temperature (25° C.) and light, and fed normal chow.
(§1) To induce seizures, both WT female (n=6) and KO female (n=5) mice and WT male (n=5) and KO male (n=6) mice were injected i.p. with 30 mg/kg KA.

[1] = tested on: hippocampus and amygdala neurons; experiment: Loss of hippocampus and amygdala neurons after kainic acid injections; type: in vivo, mouse; settings: FIG. 14
Protocol: as §1
The effect of kainic acid injections on memory function was also investigated by examining hippocampus and amygdala neurons.

[2] = tested on: primary cerebellar granule neurons; experiment: Cell survival measurement (MTT assay) after kainic acid treatment; type: cell-based, mouse; settings: T3-/- versus wild-type neurons; 50 uM kainic acid, 4 hr and 24 hrs; FIG. 9
Protocol: SH-SY5Y cells were cultured in Dulbecco's Modified Eagle's Medium (DMEM) supplemented with 10% Fetal Calf Serum (FCS). SH-SY5Y cells were transfected with Lipofectamine 2000 (Invitrogen, Carlsbad, Calif.). Granule neuron cultures were prepared from cerebella of postnatal day 5 mouse pups. Neurons were placed on polyornithine-coated 96-well plates and grown in Basal Medium Eagle (BME) (Sigma, St. Louis, Mo.) supplemented with 10% calf serum (Hyclone Laboratories, Logan, Utah), 25 mM KCl, 2 mM glutamine, penicillin, and streptomycin. One day after cultures were prepared they were treated with 10 μM of the antimitotic agent cytosine-D-arabinofuranoside (Sigma, St. Louis, Mo.) to prevent the proliferation of non-neuronal cells.
The resistance to kainic acid of primary granule neurons derived from WT and SIRT3 null mice was quantified as the percentage of live cells after a 4 hr and 24 hrs treatment with 50 uM Kainic acid. The quantitation of dead cells upon Kainic acid treatment was carried out using the MTT assay was performed using CellTiter 96 Nonradioactive Cell Proliferation Assay kit (Promega).

Compound: C=C(C)[C@H]1CN[C@H](C(=O)O)[C@H]1CC(=O)O [kainic acid]
- seizures (129/Sv mice): caused seizures in all mice
- loss of hippocampus and amygdala neurons [1]: loss of hippocampus and amygdala neurons
- cell survival [2]: reduced cell survival
